Test results as given in publication PMC8895377, “In Vivo Targeting Replication Protein A for Cancer Therapy” (Frontiers in Oncology, 2022).

Columns and labels:
[1] = tested on: H460 NSCLC tumor xenografts; test: H460 NSCLC xenograft efficacy; format: in vivo, mice; conditions: 20 mg/kg IP daily for 5 days, 2 days off, repeated 3 times, optimized formulation
From the text: To assess anticancer efficacy, the hind flanks of 60 8–10-week-old Nod SCID gamma (NSG) mice were implanted with the indicated cells (~2 × 10^6) in Matrigel. Tumor volumes were monitored by electronic caliper measurement [tumor volumes = length × (perpendicular width)^2 × 0.5]. NSG studies were approved by the Institutional Animal Care and Use Committee at Indiana University School of Medicine. Male NSG (NOD‐scid/IL2Rg^null) mice (In Vivo Therapeutics Core Facility, IU Simon Comprehensive Cancer Center, Indianapolis, IN, USA) were used and housed in a pathogen‐free facility at IUSM LARC. Mice with tumors of approximately 100 mm^3 were randomized into individual treatment arms. The indicated RPAi was formulated and administered via intraperitoneal injection (IP) at the indicated times. Tumor volumes were monitored biweekly as indicated, and the results are presented as the average tumor volume ± standard error of the mean for each group. […]
Figure 8 In vivo analysis of anticancer activity of 329. (A) Anticancer activity was assessed in human H460 NCSLC tumor xenografts in NOD/SCID mice. Mice were implanted subcutaneously on day 1 with H460 NSCLC cells, tumors were measured by calipers, and mice assigned randomly to treatment arms. […] (C) Tumor weight from A549 cells was determined on day 32. […]

[2] = biological target: T1, RPA–DNA interaction (purified full-length RPA) (Homo sapiens, UniProt P27694); test: EMSA of RPA–DNA interaction inhibition; format: binding; conditions: 6.25, 12.5, 25, 50 µM RPAi
T1 construct: Purified full-length RPA (120 ng) was incubated with the indicated RPAi
Description: EMSAs were performed as previously described ([9]). Briefly, reactions were conducted in 20 mM HEPES (pH 7.8), 1 mM DTT, 0.001% NP-40, and 50 mM NaCl. RPAis were suspended in 100% dimethlysulfoxide (DMSO), and DMSO concentration in the final reaction mixture was constant at less than 5%. Purified full-length RPA (120 ng) was incubated with the indicated RPAi or vehicle in reaction buffer for 30 min before the addition of the [^32]P-labeled 34-base ssDNA probe. Reactions were incubated for 5 min at room temperature, and products were separated via 6% native polyacrylamide gel electrophoresis. The bound and unbound fractions were quantified by phosphor-imager analysis using ImageQuant software (Molecular Dynamics, CA), and data were fit by non-linear regression using GraphPad Prism.
Figure 2 Replication protein A inhibitor (RPAi) inhibitory activity. (A) Chemical structure of RPAi’s 329 and 2004. (B) EMSA analysis of RPA–DNA interaction inhibition by 329 and 2004. Lanes 3–6 in each panel contain 6.25, 12.5, 25, and 50 µM of the indicated RPAi, respectively. The * indicates the position of the Escherichia coli SSB–single-stranded DNA (ssDNA) complex that serves as an internal specificity control. (C) Cell viability of H460 NSCLC cells in response to 329 and 2004.

[3] = Chemical stability in lead formulation; format: physicochemical; conditions: for t90: 10 mg/ml in lead formulation; for predicted time stable: lead formulation; for fourteen-day stability: final formulation
Description: With favorable potency, cellular activity, plasma stability, and a clear deficit in PK, we initiated a series of studies to assess and optimize a formulation of 329 for in vivo bioavailability. Here, 329 solubility was assessed in a series of additives, excipients, and co-solvents to identify initial favorable vehicles ( Table 2 ). […] A series of different formulations were assessed. The final formulation consisted of polysorbate 80, N-methyl-2-pyrrolidone (NMP), propylene glycol, and PEG 400 (+1.1 mol. eq. HCl added as 12 M HCl), and 329 was soluble up to 20 mg/ml, and 10-fold dilution in PBS was well dispersed with minimal precipitation.
Figure 7 The 329 in vivo analysis. (A) Stability analysis. Compound stability was assessed over a 14-day time period at varying temperatures as indicated. (B) Pharmacokinetic analysis. Time course of drug plasma concentration over 24 h following drug administration as indicated in legend.

T1 sequence (P27694 whole entry): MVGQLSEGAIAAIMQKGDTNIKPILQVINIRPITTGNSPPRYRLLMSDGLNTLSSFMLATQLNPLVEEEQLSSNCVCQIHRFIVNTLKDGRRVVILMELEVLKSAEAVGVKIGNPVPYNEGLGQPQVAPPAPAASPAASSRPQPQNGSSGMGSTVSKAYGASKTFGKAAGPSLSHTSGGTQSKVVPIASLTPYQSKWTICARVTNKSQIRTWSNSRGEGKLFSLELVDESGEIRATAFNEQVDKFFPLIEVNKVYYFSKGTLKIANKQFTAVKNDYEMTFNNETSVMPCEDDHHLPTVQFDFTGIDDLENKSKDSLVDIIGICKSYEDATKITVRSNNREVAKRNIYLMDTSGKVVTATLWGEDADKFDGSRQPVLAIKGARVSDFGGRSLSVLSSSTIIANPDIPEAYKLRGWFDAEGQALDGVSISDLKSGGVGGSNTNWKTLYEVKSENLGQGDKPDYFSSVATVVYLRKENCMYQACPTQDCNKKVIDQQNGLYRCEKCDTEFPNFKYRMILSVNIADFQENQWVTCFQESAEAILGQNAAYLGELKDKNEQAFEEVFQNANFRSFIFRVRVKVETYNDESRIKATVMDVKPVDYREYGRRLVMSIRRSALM
T1 sequence (P15927 whole entry partner): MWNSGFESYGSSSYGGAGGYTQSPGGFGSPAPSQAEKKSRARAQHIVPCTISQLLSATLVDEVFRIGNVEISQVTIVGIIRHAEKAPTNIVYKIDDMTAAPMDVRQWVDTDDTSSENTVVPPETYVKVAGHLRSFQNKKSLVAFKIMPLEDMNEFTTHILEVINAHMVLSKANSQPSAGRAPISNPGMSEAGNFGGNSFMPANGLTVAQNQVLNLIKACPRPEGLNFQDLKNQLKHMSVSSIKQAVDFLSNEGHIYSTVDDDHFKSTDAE
T1 sequence (P35244 whole entry partner): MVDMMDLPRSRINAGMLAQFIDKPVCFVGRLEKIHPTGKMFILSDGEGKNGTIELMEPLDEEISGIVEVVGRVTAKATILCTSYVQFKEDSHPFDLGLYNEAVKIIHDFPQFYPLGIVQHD

In the case of CCOc1ccc2cc(C3CC(c4ccc(I)cc4)=NN3C(=O)CCCC(=O)NCCCN3CCOCC3)c(Cl)nc2c1 (stereo not shown) [compound 329], the tumor volume [1] is reported as “a decrease in tumor volume was observed starting at day 17”, the “RPA inhibitory activity (RPA–DNA interaction, EMSA)” value [2] is reported as “potent RPA inhibitory activity” and the t90 ([3]; 5°C (extrapolated)) is reported as 2100 days. For the same molecule, the predicted time stable ([3]; 5°C, extrapolated) was “over 5 years”, the t90 ([3]; 25°C) was 140 days and the t90 ([3]; 40°C) was 26 days. The t90 ([3]; 60°C) was 3.2 days, the fourteen-day stability ([3]; extended incubations at 60°C) was “degradation was observed” and the predicted time stable ([3]; room temperature) was “over 3 months”. The fourteen-day stability ([3]; up to 40°C) was “very stable”.
